Experimental data from PMC12249711, “Comprehensive Evaluation of 1H-Isoindole-1,3(2H)-Dione Derivatives: Pharmacokinetic Studies and Analgesic Potential in Various Pain Models” (International Journal of Molecular Sciences, 2025).

Legend:
[1] = set-up: method as in PMID 35396875; settings: within the tested dose range; cited from earlier work
[2] = test system: mice; test: Capsaicin-induced neurogenic pain test; format: in vivo, Albino Swiss mice; settings: vs vehicle
Experimental: The examined compounds were administered 30 min before the test (n = 112). The pain reaction was induced by injecting 20 μL of a capsaicin solution prepared in saline (1.6 μg capsaicin per mouse paw) into the dorsal surface of the right hind paw for further details. The animals were immediately placed individually into glass beakers and the amount of time spent licking the injected paw was recorded for 5 min with a chronometer.

[3] = test system: mice; test: Glutamate-induced pain test; format: in vivo, Albino Swiss mice; settings: vs vehicle
Experimental: Prior to the experimental procedure, individual mice were acclimatized in an observation chamber (n = 128). Thirty minutes before the test, the compounds under investigation were administered intraperitoneally (i.p.). A volume of 20 μL of a glutamate solution, containing 30 μmol per mouse paw, was subcutaneously injected into the ventral surface of the right hind paw to induce a pain response. Glutamate-induced nociception was assessed 15 min post-injection. The duration of time spent licking the injected paw was recorded using a chronometer and was interpreted as an indicator of nociception.

[4] = test system: mice; test: Streptozotocin-induced diabetic neuropathy, von Frey test (tactile allodynia); format: in vivo, Albino Swiss mice; settings: diabetic (STZ) mice, 10 mg/kg i.p.; for Pain threshold after compound administration (von Frey): 30 min before the test; for Analgesic activity (von Frey): vs pre-drug threshold
Experimental: The induction of diabetes neuropathy in mice was achieved through the administration of streptozotocin (STZ), dissolved in PBS at a dose of 200 mg/kg in a constant volume of 0.1 mL/10 g of mouse body weight, intraperitoneally; (n = 50). Blood glucose levels were measured immediately prior to the administration of streptozotocin and 14 and 21 days following this administration in order to confirm the presence of hyperglycemia. For this purpose, 5 µL of blood was drawn from the tail vein of the mice using a strip glucose meter (AccuChek Active, Roche, Boulogne-Billancourt, France).
(§1) Furthermore, to assess the response to mechanical stimuli (i.e., tactile/mechanical) allodynia), the von Frey test was carried out with application of the electronic von Frey unit (Panlab, Cornellà de Llobregat, Spain) equipped with a fiber, the distal end of which was applied to the right hind paw of the mouse. The device automatically recorded the pressure force (in grams) applied until the paw withdrawal response occurred. In the absence of pain, an increase in the pressure value was observed. The force at which the animal withdrew its paw was considered the pain threshold for the mechanical stimulus. Measurements were taken before streptozotocin administration (in normoglycemic mice) and again 21 days later, both before and after compound administration, in diabetic mice (glucose level > 300 mg/dL) that had developed mechanical allodynia. On the day of the experiment, each mouse was placed in an observation chamber with a wire mesh bottom and was allowed to habituate for 1 h. After the habituation period, in order to obtain baseline values, each mouse was tested 3 times alternately in each hind paw, allowing at least 30 s between each measurement. Then, the mice were pretreated intraperitoneally with compound or vehicle, and 30 min later the animals were tested again and three measurements were taken, the mean of which was calculated to obtain the mean values after drug administration for each mouse. The anti-allodynic effect was defined as an increase in the pressure force value required to elicit a pain response, compared to the control group.

[5] = test system: rats; test: Carrageenan-induced mechanical hyperalgesia (pain pressure threshold, Randall-Selitto); format: in vivo, Wistar rats; settings: for Pain Threshold: mean ± SEM, rats; for Increase in pain threshold: vs control
Experimental: The acute and local inflammation and paw edema was induced by intraplantar (i.pl.) injection of 0.1 mL of 1% carrageenan solution in PBS into the rat’s right hind paw, according to the modified method of Winter and Lence, as described previously; (n = 84). The paw volume was measured using the dislocation of the water column of the plethysmometer (Type a, 7140; Plethysmometer, Ugo Basile, Gemonio, Italy) before (V0) and at 1, 2, and 3 h (V1, V2, V3) after i.pl. carrageenan injection. […] Vehicle (1% Tween 80) was administered by the same route as the tested compounds.
Furthermore, we performed the pain pressure threshold test to assess heightened sensitivity to mechanical stimuli. The experiment was conducted based on the method described by Randall and Selitto [58], with certain modifications. An analgesymeter (AnalgesyMeter 37215, Ugo Basile, Gemonio, Italy) was used to gradually apply increasing pressure (measured in grams) to the plantar surface of the right hind paw of the rat until paw withdrawal occurred. At this point, the intensity of the applied force (in grams) was recorded as the withdrawal threshold. The maximum force intensity was set at 250 g. Carrageenan induces a decrease in the nociceptive threshold in response to a mechanical stimulus, a condition referred to as hyperalgesia. For each rat, paw withdrawal thresholds were recorded both before (0 h) and 1, 2, and 3 h after carrageenan administration (i.e., 3.5 h after intraperitoneal pretreatment with the tested compounds). […] The analgesic effect of the tested compounds was assessed in comparison with the control group (1% Tween 80); the injection was performed intraperitoneally within 30 min of carrageenan administration. An analgesic effect occurs when the compound administered produces a pain response with greater pressure than the control group.

[6] = test system: mice; test: Formalin test; format: in vivo, Albino Swiss mice; settings: vs vehicle; for Reduction of pain reaction (licking duration), neurogenic phase: phase I (0–5 min); for Reduction of pain response, inflammatory phase: phase II (15–30 min)
Experimental: The pain reaction was induced by intraplantar (i.pl.) injection of 20 μL of 2.5% formalin solution into the right hind paw of the mouse (n = 136). […] Time (in seconds) spent on licking or biting the injected hind paw in selected intervals, 0–5 min (neurogenic phase) and 15–30 min (inflammatory phase), was measured in each group and was an indicator of nociceptive behavior. The procedure was based on the method described by with some modifications by.

[7] = test system: mice; test: Oxaliplatin-induced neuropathic pain, von Frey test (tactile allodynia); format: in vivo, Albino Swiss mice; settings: 10 mg/kg i.p.
Experimental: as §1
To assess the response to mechanical stimuli (i.e., tactile/mechanical allodynia), the von Frey test was performed using an electronic von Frey device (Bioseb, Vitrolles, France), as described in Section 4.4.5. In this assay, measurements were taken before and 3 h after oxaliplatin administration, as well as 7 days later. […] A total of 30 min after administration, the assessment was repeated using the same procedure.

[8] = 10 mg/kg i.p., 0 h (before carrageenan)
[9] = 10 mg/kg i.p., 1 h after carrageenan
[10] = 10 mg/kg i.p., 2 h after carrageenan
[11] = 10 mg/kg i.p., 3 h after carrageenan
[12] = 20 mg/kg i.p., 0 h (before carrageenan)
[13] = 20 mg/kg i.p., 1 h after carrageenan
[14] = 20 mg/kg i.p., 2 h after carrageenan
[15] = 20 mg/kg i.p., 3 h after carrageenan
[16] = early phase, 3 h after oxaliplatin
[17] = late phase, 7 days after oxaliplatin

Structure (SMILES) | Effect on locomotor activity / sedation [1] | Reduction of capsaicin-induced neurogenic pain ([2]; 20 mg/kg i.p.) [%] | Reduction of glutamate-induced pain reaction ([3]; 10 mg/kg i.p.) [%] | Reduction of glutamate-induced pain reaction ([3]; 20 mg/kg i.p.) [%] | Pain threshold after compound administration (von Frey) [4] [g] | Analgesic activity (von Frey) [4] [%] | Pain Threshold [5, 8] [g] | Pain Threshold [5, 9] [g] | Pain Threshold [5, 10] [g] | Pain Threshold [5, 11] [g] | Increase in pain threshold ([5]; 10 mg/kg, 1 h) [%] | Increase in pain threshold ([5]; 10 mg/kg, 2 h) [%] | Increase in pain threshold ([5]; 10 mg/kg, 3 h) [%] | Pain Threshold [5, 12] [g] | Pain Threshold [5, 13] [g] | Pain Threshold [5, 14] [g] | Pain Threshold [5, 15] [g] | Increase in pain threshold ([5]; 20 mg/kg, 1 h) [%] | Increase in pain threshold ([5]; 20 mg/kg, 2 h) [%] | Increase in pain threshold ([5]; 20 mg/kg, 3 h) [%] | other results
O=C1c2ccccc2C(=O)N1CC(O)CN1CCN(c2ccccc2)CC1 (stereo not drawn) [Compound F1] | mild sedative effects | 69.0 | 82.3 | 87.2 | 4.28 ± 0.32 | 48.6 | 128.3 ± 1.1 | 138.3 ± 2.1 | 142.5 ± 2.1 | 134.2 ± 2.1 | 16 | 19.5 | 14.2 | 130.0 ± 2.9 | 143.3 ± 2.5 | 148.3 ± 2.8 | 146.7 ± 1.1 | 20.2 | 24.4 | 25 | Reduction of capsaicin-induced neurogenic pain ([2]; 5 mg/kg i.p.): 31.7%; Reduction of capsaicin-induced neurogenic pain ([2]; 10 mg/kg i.p.): 40.8%; Reduction of glutamate-induced pain reaction ([3]; 5 mg/kg i.p.): 41.3%; Reduction of pain reaction (licking duration), neurogenic phase ([6]; 5 mg/kg i.p.): did not attenuate the nociceptive response; Reduction of pain reaction (licking duration), neurogenic phase ([6]; 10 mg/kg i.p.): 44.9%; Reduction of pain reaction (licking duration), neurogenic phase ([6]; 20 mg/kg i.p.): 62.7%; Reduction of pain response, inflammatory phase ([6]; 5 mg/kg i.p.): 37%; Reduction of pain response, inflammatory phase ([6]; 10 mg/kg i.p.): 66%; Reduction of pain response, inflammatory phase ([6]; 20 mg/kg i.p.): 90%; Analgesic activity (von Frey) [7, 16]: 60.7%; Pain threshold after compound administration (von Frey) [7, 16]: 3.39 ± 0.46 g; Analgesic activity (von Frey) [7, 17]: 35%; Pain threshold after compound administration (von Frey) [7, 17]: 3.9 ± 0.34 g
O=C1c2ccccc2C(=O)N1CC(O)CN1CCN(c2cccc(C(F)(F)F)c2)CC1 (stereo not drawn) [Compound F3] | mild sedative effects | 48.46 | 61 | 70 | 5.21 ± 0.32 | 81.13 | 134.2 ± 2.4 | 141.7 ± 1.7 | 142.5 ± 2.1 | 137.5 ± 1.7 | 7 | 12.5 | 10 | 135.8 ± 1.5 | 148.3 ± 3.3 | 150.8 ± 3.9 | 148.3 ± 3.1 | 11.9 | 19 | 18.6 | Reduction of pain reaction (licking duration), neurogenic phase ([6]; 5 mg/kg i.p.): did not attenuate the nociceptive response; Reduction of pain reaction (licking duration), neurogenic phase ([6]; 10 mg/kg i.p.): did not attenuate the nociceptive response; Reduction of pain reaction (licking duration), neurogenic phase ([6]; 20 mg/kg i.p.): 41.6%; Reduction of pain response, inflammatory phase ([6]; 5 mg/kg i.p.): 34.5%; Reduction of pain response, inflammatory phase ([6]; 10 mg/kg i.p.): 57.5%; Reduction of pain response, inflammatory phase ([6]; 20 mg/kg i.p.): 80.9%; Analgesic activity (von Frey) [7, 16]: 82.9%; Pain threshold after compound administration (von Frey) [7, 16]: 3.53 ± 0.08 g; Analgesic activity (von Frey) [7, 17]: 37.59%; Pain threshold after compound administration (von Frey) [7, 17]: 3.99 g
